Source: ChEMBL document CHEMBL1132664, “C32-O-phenalkyl ether derivatives of the immunosuppressant ascomycin: a tether length study” (Bioorg Med Chem Lett, 1999)

Assays:
Mus musculus = species: Mus musculus; experiment: In vitro immunosuppressive activity in murine splenic T cells; assay type: functional, cell-based; conditions: T-cell
[1] = molecular target: Peptidyl-prolyl cis-trans isomerase FKBP1A (Homo sapiens, UniProt P62942); experiment: Effective concentration determined was towards FK506 binding protein 12 by competitive binding assay using [3H]-dihydro FK-506 as radioligand
Sequence of Peptidyl-prolyl cis-trans isomerase FKBP1A (P62942 whole entry): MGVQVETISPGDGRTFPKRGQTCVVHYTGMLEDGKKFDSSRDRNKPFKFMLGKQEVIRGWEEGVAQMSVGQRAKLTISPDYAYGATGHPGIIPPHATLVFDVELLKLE

SMILES | IC50 (Mus musculus) [nM] | EC50 [1] [nM]
CC[C@@H]1/C=C(\C)C[C@H](C)C[C@H](OC)[C@H]2O[C@@](O)(C(=O)C(=O)N3CCCC[C@H]3C(=O)O[C@H](/C(C)=C/[C@@H]3CC[C@@H](OC(=O)Cc4ccccc4)[C@H](OC)C3)[C@H](C)[C@@H](O)CC1=O)[C@H](C)C[C@@H]2OC | 3.5 | –
CC[C@@H]1/C=C(\C)C[C@H](C)C[C@H](OC)[C@H]2O[C@@](O)(C(=O)C(=O)N3CCCC[C@H]3C(=O)O[C@H](/C(C)=C/[C@@H]3CC[C@@H](Oc4ccccc4)[C@H](OC)C3)[C@H](C)[C@@H](O)CC1=O)[C@H](C)C[C@@H]2OC | 5.4 | 12
CC[C@@H]1/C=C(\C)C[C@H](C)C[C@H](OC)[C@H]2O[C@@](O)(C(=O)C(=O)N3CCCC[C@H]3C(=O)O[C@H](/C(C)=C/[C@@H]3CC[C@@H](OCCCc4ccccc4)[C@H](OC)C3)[C@H](C)[C@@H](O)CC1=O)[C@H](C)C[C@@H]2OC | 3.5 | 32
CC[C@@H]1/C=C(\C)C[C@H](C)C[C@H](OC)[C@H]2O[C@@](O)(C(=O)C(=O)N3CCCC[C@H]3C(=O)O[C@H](/C(C)=C/[C@@H]3CC[C@@H](OCC(O)c4ccccc4)[C@H](OC)C3)[C@H](C)[C@@H](O)CC1=O)[C@H](C)C[C@@H]2OC (some centres undefined) | 0.18 | –
C=C(CO[C@@H]1CC[C@@H](/C=C(\C)[C@H]2OC(=O)[C@@H]3CCCCN3C(=O)C(=O)[C@]3(O)O[C@H]([C@@H](OC)C[C@@H](C)C/C(C)=C/[C@@H](CC)C(=O)C[C@H](O)[C@H]2C)[C@@H](OC)C[C@H]3C)C[C@H]1OC)c1ccccc1 | 1 | –
CC[C@@H]1/C=C(\C)C[C@H](C)C[C@H](OC)[C@H]2O[C@@](O)(C(=O)C(=O)N3CCCC[C@H]3C(=O)O[C@H](/C(C)=C/[C@@H]3CC[C@@H](OCCO)[C@H](OC)C3)[C@H](C)[C@@H](O)CC1=O)[C@H](C)C[C@@H]2OC | 4.3 | –
CC[C@@H]1/C=C(\C)C[C@H](C)C[C@H](OC)[C@H]2O[C@@](O)(C(=O)C(=O)N3CCCC[C@H]3C(=O)O[C@H](/C(C)=C/[C@@H]3CC[C@@H](OCc4ccccc4)[C@H](OC)C3)[C@H](C)[C@@H](O)CC1=O)[C@H](C)C[C@@H]2OC | 3 | 5.3
CC[C@@H]1/C=C(\C)C[C@H](C)C[C@H](OC)[C@H]2O[C@@](O)(C(=O)C(=O)N3CCCC[C@H]3C(=O)O[C@H](/C(C)=C/[C@@H]3CC[C@@H](OCCc4ccccc4)[C@H](OC)C3)[C@H](C)[C@@H](O)CC1=O)[C@H](C)C[C@@H]2OC | 0.61 | 9.2
CC[C@@H]1/C=C(\C)C[C@H](C)C[C@H](OC)[C@H]2O[C@@](O)(C(=O)C(=O)N3CCCC[C@H]3C(=O)O[C@H](/C(C)=C/[C@@H]3CC[C@@H](OCC(=O)c4ccccc4)[C@H](OC)C3)[C@H](C)[C@@H](O)CC1=O)[C@H](C)C[C@@H]2OC | 0.27 | –
CC[C@@H]1/C=C(\C)C[C@H](C)C[C@H](OC)[C@H]2O[C@@](O)(C(=O)C(=O)N3CCCC[C@H]3C(=O)O[C@H](/C(C)=C/[C@@H]3CC[C@@H](O)[C@H](OC)C3)[C@H](C)[C@@H](O)CC1=O)[C@H](C)C[C@@H]2OC [ASCOMYCIN] | 0.69 | –
